Results: patent US11013745B2, “Triazolopyrimidine, triazolopyridine compounds, and the composition thereof for treating PRC2-mediated diseases” (SHANGHAI INSTITUTE OF MATERIA MEDICA, CHINESE ACADEMY OF …, priority 2017, dated 2021)
Read-outs that look alike come from different tables or passages of the source.

Tests used:
[1] = target: PRC2 enzyme (Homo sapiens (Human), UniProt O75530); assay: PRC2 enzyme activity, TR-FRET method; type: biochemical
Procedure: The TR-FRET method was used to measure the PRC2 enzyme activity. First, the enzyme was mixed with compounds at different concentrations and incubated for 30 min at room temperature. The biotin-labeled histone H3 peptide substrate and the cofactor S-adenosylmethionine (SAM) were added to initiate the enzymatic reaction. After reaction was performed at room temperature for 4 hour, Acceptor and Donor were added and incubated for half an hour. The multifunctional microplate reader EnVision (Perkin Elmer Inc.) was used to detect the fluorescence signal. Data were analyzed using GraphPad Prism 5.0 software, and IC50 values were obtained.

[2] = system: Pfeiffer cells; assay: Pfeiffer cell growth inhibition in a long term (11 days), CellTiter-Glo; type: cell-based, Human; details: Homo sapiens, 264 h, read-out: Experiment on Pfeiffer cell growth inhibition in a long term (11 days IC50)
Procedure: Pfeiffer cells in exponential growth phase were seeded in a 24-well plate with a cell density of 1*10E5 cells/mL. Cells were treated on the same day with the compounds at different concentrations. At day 4 and day 7 of compound treatment, fresh media and compounds were changed. After treated with the compounds for 11 days, cell viability was measured using CellTiter-Glo reagent (Promega Corporation). The data was analyzed using GraphPad Prism 5.0 software and GI50 values were obtained.

[3] = Liver microsomal stability (human); type: in vitro ADME
Procedure: (§1) 1. JANUS and temperature control device was turned on. After being initialized, the pipes were flushed until there was no air bubble in the pipes.
(§2) 2. Preparation of buffers used for the experiment
(§3) Preparation of Tris pH 7.4 buffer (0.1 M): 12.12 g of Tris was dissolved in 1000 mL of H2O, the resulting solution was adjusted to pH 7.4 with 2N HCl, aliquoted at 50 mL per tube, and stored at −20° C.
(§4) Preparation of H2O/0.1% BSA buffer: 200 μL of 25% BSA was added to 50 mL of H2O.
(§5) Preparation of VIVID stock solution: 1 mg of VIVID was dissolved in 1 mL of acetonitrile, aliquoted at 50 μL per tube, and stored at −20° C.
(§6) Preparation of MgCl2 solution (100 mM): 1.016 g of MgCl2 was dissolved in 50 mL Tris pH 7.4 buffer, and aliquoted at 1 mL per tube, and stored at −20° C.
(§7) Preparation of NADPH solution (10 mM): 355 mg of NADPH was dissolved in 42.6 mL of Tris pH 7.4 buffer, aliquoted at 1.8 mL per tube, and stored at −20° C.
(§8) Preparation of Blank control: 7.937 mL of Tris, 163 μL of RLM, 450 μL of MgCl2 solution, 450 μL of NADPH solution and 9 mL of methanol were mixed uniformly, aliquoted at 1 mL per tube, and stored at −20° C.
(§9) 3. Preparation of Compound Working Solution
(§10) Dilution step 1:10 μL of compound stock solution was added to 90 μL of DMSO=1 mM stock solution.
(§11) Dilution step 2: 2 μL of 1 mM stock solution was added to 1 mL of H2O/0.1%6 BSA buffer=[…] working solution.
(§12) Dilution step 3: 245 μL of the working solution was added to a 96-well compound plate and added with 5 μL of VIVID stock solution.
(§13) The 96-well compound plate was shaken on a shaker for 5 min.
(§14) 4. The STM in the JANUS in the computer was open to run the EXCEL file, and the JANUS program was operated and run by following the instructions in the EXCEL file.
(§15) 5. After the JANUS program was finished, acetonitrile/water 50:50 (V/V) was added to column 20 of the 384-well black plate, and blank control was added to column 21 of the 384-well black plate.
(§16) 6. the plate (420 nm-465 nm) was read on a microplate reader to determine the VIVID fluorescence intensity.
(§17) 7. After the plate was sealed, shaken and centrifuged, the sample plate was subjected to the LC/MS instrument for sample analysis.
(§18) A profile of the logarithmic value of the remaining rate of the drug in the incubation system versus the incubation time was plotted, and the slope k was obtained by linear regression. The intrinsic clearance rate in vivo (Clint, mL/min/g) value, the clearance rate in vivo (Cl, mL)/min), liver clearance (Clhep, mL/min) and metabolic bioavailability (% MF) were predicted according to the following equations: […]

[4] = Liver microsomal stability (mouse); type: in vitro ADME; details: mouse liver microsomes
[5] = Liver microsomal stability (rat); type: in vitro ADME; details: rat liver microsomes
Procedure: as §1, §2, §3, §4, §5, §6, §7, §8, §9, §10, §11, §12, §13, §14, §15, §16, §17, §18

PRC2 enzyme, sequence (O75530 whole entry): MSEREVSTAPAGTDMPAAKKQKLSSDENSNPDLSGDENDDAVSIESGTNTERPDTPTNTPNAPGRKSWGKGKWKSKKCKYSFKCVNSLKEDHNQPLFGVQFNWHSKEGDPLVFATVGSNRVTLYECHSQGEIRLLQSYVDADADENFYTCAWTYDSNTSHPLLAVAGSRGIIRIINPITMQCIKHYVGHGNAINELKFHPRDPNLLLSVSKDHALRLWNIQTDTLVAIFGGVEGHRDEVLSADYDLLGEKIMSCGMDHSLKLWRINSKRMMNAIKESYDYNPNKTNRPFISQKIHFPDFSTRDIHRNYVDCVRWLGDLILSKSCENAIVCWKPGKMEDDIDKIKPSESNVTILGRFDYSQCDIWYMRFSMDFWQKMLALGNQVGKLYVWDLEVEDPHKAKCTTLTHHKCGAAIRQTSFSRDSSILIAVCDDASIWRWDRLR
PRC2 enzyme, sequence (Q15910 whole entry partner): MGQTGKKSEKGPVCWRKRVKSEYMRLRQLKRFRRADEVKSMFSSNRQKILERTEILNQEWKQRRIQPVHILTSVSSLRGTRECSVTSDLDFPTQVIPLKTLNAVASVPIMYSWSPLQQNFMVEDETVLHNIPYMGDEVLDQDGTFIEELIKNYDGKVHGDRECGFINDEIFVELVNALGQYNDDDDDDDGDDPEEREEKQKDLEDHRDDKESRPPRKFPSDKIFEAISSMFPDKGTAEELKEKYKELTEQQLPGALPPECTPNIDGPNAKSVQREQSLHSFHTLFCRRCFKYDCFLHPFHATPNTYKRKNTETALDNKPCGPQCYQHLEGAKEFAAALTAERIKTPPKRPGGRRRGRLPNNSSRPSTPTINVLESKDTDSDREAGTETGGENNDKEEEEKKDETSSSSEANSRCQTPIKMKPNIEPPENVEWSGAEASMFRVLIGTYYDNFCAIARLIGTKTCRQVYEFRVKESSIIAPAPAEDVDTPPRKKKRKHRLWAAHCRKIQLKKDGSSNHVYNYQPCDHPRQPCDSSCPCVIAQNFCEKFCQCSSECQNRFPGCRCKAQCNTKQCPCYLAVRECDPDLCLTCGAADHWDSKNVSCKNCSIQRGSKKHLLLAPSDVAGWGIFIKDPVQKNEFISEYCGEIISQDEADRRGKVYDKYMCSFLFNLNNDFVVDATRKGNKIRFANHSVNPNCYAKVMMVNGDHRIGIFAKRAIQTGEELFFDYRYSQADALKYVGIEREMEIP
PRC2 enzyme, sequence (Q15022 whole entry partner): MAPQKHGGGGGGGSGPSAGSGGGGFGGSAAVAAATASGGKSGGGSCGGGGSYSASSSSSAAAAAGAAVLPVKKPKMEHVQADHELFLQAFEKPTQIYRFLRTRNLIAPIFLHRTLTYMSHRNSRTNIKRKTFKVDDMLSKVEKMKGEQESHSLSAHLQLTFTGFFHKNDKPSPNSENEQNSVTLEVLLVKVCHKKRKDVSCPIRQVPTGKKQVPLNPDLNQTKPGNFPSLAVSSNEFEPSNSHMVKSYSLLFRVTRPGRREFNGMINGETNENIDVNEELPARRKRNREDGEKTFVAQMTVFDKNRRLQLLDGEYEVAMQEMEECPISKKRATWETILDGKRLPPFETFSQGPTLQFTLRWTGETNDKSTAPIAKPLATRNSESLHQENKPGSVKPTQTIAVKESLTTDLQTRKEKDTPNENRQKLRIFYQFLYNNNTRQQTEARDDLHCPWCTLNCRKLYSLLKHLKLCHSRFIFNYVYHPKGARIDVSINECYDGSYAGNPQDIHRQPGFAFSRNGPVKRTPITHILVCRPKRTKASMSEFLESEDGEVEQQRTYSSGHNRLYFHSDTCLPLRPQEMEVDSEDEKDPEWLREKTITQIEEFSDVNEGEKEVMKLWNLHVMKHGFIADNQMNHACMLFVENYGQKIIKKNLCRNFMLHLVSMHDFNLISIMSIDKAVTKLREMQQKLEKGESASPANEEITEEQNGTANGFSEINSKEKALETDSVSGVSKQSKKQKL

Row | IC50 [1] [nM] | IC50 ([2]; 11 days) [nM] | SMILES | further results
1 | 93.9 |  | CC(=O)N1CCC(c2cnc(NCc3ccco3)n3cnnc23)CC1 [E-Y20-H] | 
2 | 21 | 2.7 | CC(C)(C)NC(=O)N1CC=C(c2cnc(NCc3c(F)ccc4c3CCO4)n3cnnc23)CC1 [E-Y18] | 
3 | 40.8 | 9 to 27 | CCC(=O)N1CC=C(c2cnc(NCc3c(F)ccc4c3CCO4)n3cnnc23)CC1 [SL-ZYE-161] | 
4 | 1.7 |  | CS(=O)(=O)N1CCC=C(c2cnc(NCc3c(F)ccc4c3CCO4)n3cnnc23)CC1 [SL-E14] | 
5 | 115 |  | CC(C)(C)OC(=O)N1CC=C(c2cnc(NCc3cccc4occc34)n3cnnc23)CC1 [SL-ZYE-18] | 
6 | 4.1 |  | CN(C)CC(=O)N1CC=C(c2cnc(NCc3c(F)ccc4c3CCO4)n3cnnc23)CC1 [E-Y54] | Clearance rate in vivo Clint In Vivo Extpl ([3]; human liver microsomes): 188 mL/min; Intrinsic clearance rate in vivo Clint In Vitro ([3]; human liver microsomes): 2.46 mL/min/gprot; Liver clearance rate Clint Hep In Vivo Extpl ([3]; human liver microsomes): 167 mL/min; half-life ([3]; human, liver microsomes, pH 7.4, human liver microsomes, read-out: Half life T-half): 14.2 h; bioavailability ([3]; human, liver microsomes, pH 7.4, human liver microsomes, read-out: Metabolic bioavailability MF %): 88.8%; Clearance rate in vivo Clint In Vivo Extpl [4]: 3.86 mL/min; Half life T-half [4]: 0.613 h; Intrinsic clearance rate in vivo Clint In Vitro [4]: 57.1 mL/min/gprot; Liver clearance rate Clint Hep In Vivo Extpl [4]: 1.69 mL/min; Metabolic bioavailability MF % [4]: 43.7%; Clearance rate in vivo Clint In Vivo Extpl [5]: 10.0 mL/min; Half life T-half [5]: 1.57 h; Intrinsic clearance rate in vivo Clint In Vitro [5]: 22.3 mL/min/gprot; Liver clearance rate Clint Hep In Vivo Extpl [5]: 6.67 mL/min; Metabolic bioavailability MF % [5]: 66.6%
7 | 11.9 |  | Fc1ccc2c(c1CNc1ncc(C3CCCOCC3)c3nncn13)CCO2 (stereo not shown) [SL-ZYE-08] | 
8 | 4.7 | 1 to 3 | CCOC(=O)N1CC=C(c2cnc(NCc3c(F)ccc4c3CCO4)n3cnnc23)CC1 [SL-ZYE-148] | 
9 | 351 | 185 | O=C(c1ccccc1)N1CC=C(c2cnc(NCc3ccco3)n3cnnc23)CC1 [E-Y21] | 
10 | 3.2 |  | O=S1(=O)CCC(c2cnc(NCc3c(F)ccc4c3CCO4)n3cnnc23)CC1 [SL-ZYE-34] | 
11 | 373 |  | CC(C)(C)NC(=O)N1CC=C(c2cnc(NCc3ccco3)n3cnnc23)CC1 [E-Y25] | 
12 | 22.3 |  | CC1(C)C=C(c2cnc(NCc3c(F)ccc4c3CCO4)n3cnnc23)CC(C)(C)O1 [SL-ZYE-195] | 
13 | 84 |  | c1cc(CNc2ncc(C3CCOCC3)c3nncn23)c2c(c1)OCC2 [SL-ZYE-14] | 
14 | 793 |  | CC(=O)NC1CC=C(c2cnc(NCc3ccco3)n3cnnc23)CC1 (stereo not shown) [E-Y30] | 
15 | 8 |  | Fc1ccc2c(c1CNc1ncc(C3=CCSCC3)c3nncn13)CCO2 [E-Y2] | 
16 |  | 83 | CC(C)(C)OC(=O)N1CC=C(c2cnc(NCc3ccco3)n3cnnc23)CC1 [E-Y6] | 
17 | 5.4 | 15.9 | CCNC(=O)N1CCC(c2cnc(NCc3c(F)ccc4c3CCO4)n3cnnc23)CC1 [E-Y48] | 
18 | 200 |  | CC(C)(C)OC(=O)N1CC=C(c2cc(C#N)c(NCc3ccco3)n3cnnc23)CC1 [E-Y51] | 
19 | 5 |  | CN(C)CC(=O)N1CC=C(c2cnc(NCc3c(F)ccc4c3CCO4)n3cnnc23)CC1 [E-Y54-H] | Clearance rate in vivo Clint In Vivo Extpl ([3]; human liver microsomes): 336 mL/min; Half life T-half ([3]; human liver microsomes): 7.98 h; Intrinsic clearance rate in vivo Clint In Vitro ([3]; human liver microsomes): 4.39 mL/min/gprot; Liver clearance rate Clint Hep In Vivo Extpl ([3]; human liver microsomes): 274 mL/min; Metabolic bioavailability MF % ([3]; human liver microsomes): 81.7%; Clearance rate in vivo Clint In Vivo Extpl [4]: 1.21 mL/min; Half life T-half [4]: 1.95 h; Intrinsic clearance rate in vivo Clint In Vitro [4]: 17.9 mL/min/gprot; Liver clearance rate Clint Hep In Vivo Extpl [4]: 0.862 mL/min; Metabolic bioavailability MF % [4]: 71.3%; Clearance rate in vivo Clint In Vivo Extpl [5]: 4.26 mL/min; Half life T-half [5]: 3.7 h; Intrinsic clearance rate in vivo Clint In Vitro [5]: 9.47 mL/min/gprot; Liver clearance rate Clint Hep In Vivo Extpl [5]: 3.51 mL/min; Metabolic bioavailability MF % [5]: 82.4%
20 | 342 |  | CS(=O)(=O)NC1CC=C(c2cnc(NCc3ccco3)n3cnnc23)CC1 (stereo not shown) [E-Y32] | 
21 | 318 |  | CN(C)CC(=O)N1CC=C(c2cnc(NCc3ccco3)n3cnnc23)CC1 [E-Y35] | 
22 | 101 |  | Cc1ccc(S(=O)(=O)N2CC=C(c3cnc(NCc4c(F)ccc5c4CCO5)n4cnnc34)CC2)cc1 [E-Y14] | 
23 | 3.6 |  | CC1(C)C=C(c2cnc(NCc3c(F)ccc4c3CCO4)n3cnnc23)CCO1 [SL-ZYE-120] | 

Second part, the molecule before the results:

Row | SMILES | IC50 [1] [nM] | IC50 ([2]; 11 days) [nM] | further results
24 | CC1(C)CC(c2cnc(NCc3c(F)ccc4c3CCO4)n3cnnc23)CCO1 (stereo not shown) [SL-ZYE-121] | 4.2 |  | 
25 | C1=C(c2cnc(NCc3cccc4occc34)n3cnnc23)CCOC1 [SL-ZYE-17] | 56 |  | 
26 | CC(F)(F)C(=O)N1CC=C(c2cnc(NCc3ccco3)n3cnnc23)CC1 [E-Y34] | 907 |  | 
27 | O=C(CN1CCOCC1)N1CC=C(c2cnc(NCc3ccco3)n3cnnc23)CC1 [E-Y36] | 543 | 289 | 
28 | CC(=O)N1CCC=C(c2cnc(NCc3c(F)ccc4c3CCO4)n3cnnc23)CC1 [SL-E13] | 3.3 | 6 | 
29 | CC(C)(C)OC(=O)NC1CC=C(c2cnc(NCc3ccco3)n3cnnc23)CC1 (stereo not shown) [E-Y9] |  | 320 | 
30 | O=C(NC(=S)N1CC=C(c2cnc(NCc3c(F)ccc4c3CCO4)n3cnnc23)CC1)c1ccccc1 [E-Y39] | 54.5 |  | 
31 | CN1CCC(c2cnc(NCc3c(F)ccc4c3CCO4)n3cnnc23)CC1 [SL-E25] | 15 |  | 
32 | O=C(c1ccccc1)N1CC=C(c2cnc(NCc3c(F)ccc4c3CCO4)n3cnnc23)CC1 [E-Y16] | 17.7 | 4.8 | 
33 | C=CC(=O)N1CC=C(c2cnc(NCc3c(F)ccc4c3CCO4)n3cnnc23)CC1 [E-Y45] | 3.4 | 1.8 | 
34 | CS(=O)(=O)N1CC=C(c2cnc(NCc3ccco3)n3cnnc23)CC1 [E-Y22] | 334 |  | 
35 | COC(=O)N1CCC=C(c2cnc(NCc3c(F)ccc4c3CCO4)n3cnnc23)CC1 [SL-ZYE-183] | 2.2 |  | 
36 | O=C(NC1CC=C(c2cnc(NCc3ccco3)n3cnnc23)CC1)c1ccccc1 (stereo not shown) [E-Y31] | 758 |  | 
37 | CCNC(=S)N1CC=C(c2cnc(NCc3c(F)ccc4c3CCO4)n3cnnc23)CC1 [E-Y19] | 9.3 |  | IC50 [2]: 3 nM
38 | CS(=O)(=O)N1CCC(c2cnc(NCc3c(F)ccc4c3CCO4)n3cnnc23)CC1 [E-Y13-H] | 10.7 |  | 
39 | O=C(c1cnco1)N1CC=C(c2cnc(NCc3c(F)ccc4c3CCO4)n3cnnc23)CC1 [E-Y41] | < 20 | 4.5 | 
40 | COC(=O)N1CC=C(c2cnc(NCc3c(F)ccc4c3CCO4)n3cnnc23)CC1 [SL-ZYE-147] |  | 1 to 3 | 
41 | C1=C(c2cnc(NCc3ccco3)n3cnnc23)CCSC1 [E-Y5] | 611 |  | 
42 | Cc1ccc(NC(=O)N2CC=C(c3cnc(NCc4ccco4)n4cnnc34)CC2)cc1 [E-Y26] | 91 |  | 
43 | C1=C(c2cnc(NCc3cccc4c3CCO4)n3cnnc23)CCOC1 [SL-ZYE-11] | 17.9 |  | 
44 | Cc1ccc(S(=O)(=O)N2CC=C(c3cnc(NCc4ccco4)n4cnnc34)CC2)cc1 [E-Y23] | 350 | 107 | 
45 | O=C(OCc1ccccc1)N1CC=C(c2cnc(NCc3c(F)ccc4c3CCO4)n3cnnc23)CC1 [E-Y44] | 85.8 | 2.3 | 
46 | CC1C=C(c2cnc(NCc3c(F)ccc4c3CCO4)n3cnnc23)CC(C)N1C(=O)OC(C)(C)C (stereo not shown) [SL-ZYE-23] | 47.6 |  | 
47 | CCNC(=O)N1CC=C(c2cnc(NCc3c(F)ccc4c3CCO4)n3cnnc23)CC1 [E-Y17] |  | 2.7 | 
48 | CN1CCC(c2cnc(NCc3c(F)ccc4c3CCO4)n3cnnc23)CC1=O (stereo not shown) [SL-E26] | 8.4 |  | 
